In brackets after ≈: the same amount, converted by molar mass.

Assay [1] deals with HL-60. Nature of the assay: Cytotoxicity against human HL60 cells. It counts as functional, cell-based.
For assay [2], the system named is Bacillus subtilis. Nature of the assay: Antimicrobial activity against Bacillus subtilis NBRC 3134. It counts as functional.

For orientation: IC50 means the concentration at which inhibition is half-maximal. Higher therefore signals lower potency. In turn, `CCCCCC[C@H]1C(=O)O[C@H](C)[C@H](NC(=O)c2cccc(NC=O)c2O)C(=O)O[C@@H](C)[C@@H]1OC(=O)CC(C)C` [ANTIMYCIN A] registered an IC50 in assay [1] of 45 µM.
A word on the MIC: it is the least concentration at which growth counts as inhibited. The compound `C[C@@H]1Cc2c(c(O)c3c(=O)cc4oc5c(O)cc(O[C@@H]6O[C@H](CO)[C@@H](O)[C@H](O)[C@H]6O)c6c(=O)c7c8c(c56)c4c3c2O[C@@]8(O)[C@@H](C)O[C@@H]7C)[C@@H](C)O1` [VIRIDAPHIN A1 GLUCOSIDE] yielded a half-maximal inhibitory concentration (IC50) in assay [1] of 23 µM. This compound also registered an MIC in assay [2] of 10 µg/mL (≈ 14.2 µM).

The values above are taken from ChEMBL document CHEMBL1817637, “Viridaphin A₁ glucoside, a green pigment possessing cytotoxic and antibacterial activity from the aphid Megoura crassicauda” (J Nat Prod, 2011).
